Data from patent publication US20080319065A1, “Systemic and Intrathecal Effects of a Novel Series of Phospholipase A2 Inhibitors on Hyperalgesia and Spinal Pge2 Release” (The Regents of the University of California, priority 2005, published 2008).

Assays:
[1] = biological target: T1, Group IVA cPLA2 (GIVA PLA2) (Homo sapiens, UniProt P47712); experiment: In vitro Group IVA cPLA2 mixed micelle assay; assay type: biochemical
T1 sequence (P47712 1-749): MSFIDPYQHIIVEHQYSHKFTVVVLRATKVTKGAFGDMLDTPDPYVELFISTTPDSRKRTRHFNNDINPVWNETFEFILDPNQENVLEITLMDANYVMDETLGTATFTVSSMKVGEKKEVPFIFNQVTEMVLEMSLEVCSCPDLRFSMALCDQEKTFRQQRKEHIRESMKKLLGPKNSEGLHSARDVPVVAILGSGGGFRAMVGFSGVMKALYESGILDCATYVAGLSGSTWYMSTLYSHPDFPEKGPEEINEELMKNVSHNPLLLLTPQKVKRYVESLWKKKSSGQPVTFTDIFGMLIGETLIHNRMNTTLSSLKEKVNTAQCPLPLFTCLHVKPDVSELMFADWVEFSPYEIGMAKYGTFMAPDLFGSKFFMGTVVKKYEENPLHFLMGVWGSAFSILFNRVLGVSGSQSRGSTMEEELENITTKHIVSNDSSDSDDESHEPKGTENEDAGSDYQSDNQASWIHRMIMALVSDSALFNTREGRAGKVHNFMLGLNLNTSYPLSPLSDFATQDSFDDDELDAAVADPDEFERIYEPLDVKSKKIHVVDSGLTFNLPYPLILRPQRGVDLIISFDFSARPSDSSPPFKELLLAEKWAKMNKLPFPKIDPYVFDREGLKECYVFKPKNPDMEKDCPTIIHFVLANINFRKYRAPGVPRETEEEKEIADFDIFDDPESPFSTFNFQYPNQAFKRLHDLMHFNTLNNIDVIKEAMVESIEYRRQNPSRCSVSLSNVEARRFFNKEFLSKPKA
Procedure: (§1) Numerous 2-oxoamides were tested for inhibition of PLA2s in in vitro assay systems. The data, summarized in Tables 1a, 1b and 2 are represented as XI(50) values unless otherwise noted. XI(50) is defined as the inhibitor concentration that produced 50% inhibition. XI(50) is used as opposed to the more common IC50 because GIVA and GVIA PLA2 are active at a two-dimensional lipid interface rather than in three-dimensional solution. (Deems, Anal. Biochem., 287:1-16, 2000). The 2-oxoamide inhibitors likely partition to the micelle interface and therefore must be represented as a percentage of surface concentration (mole fraction) as opposed to bulk concentration (molar units). (Kokotos, et al., J. Med. Chem., 45:2891-2893, 2002).
(§2) In vitro Group IV cPLA2 and Group VI iPLA2 assays were done as previously described (Kokotos, et al., supra, 2002). Briefly, 100 μM lipid substrate and 100,000 cpm radiolabeled analog were dried down under N2 and dissolved in assay buffer containing 400 μM Triton X-100 to yield a mixed micelle substrate solution. Inhibitors dissolved in DMSO were added to the reaction tubes and allowed to incubate with substrate for five minutes at 40° C. Pure enzyme was added to yield a final volume of 500 μl, and digestion was carried out at 40° C. for 30 minutes. Reactions were quenched and extracted using the Dole method and products were quantified by liquid scintillation counting. Percent inhibition was determined at a range of inhibitor mole fraction concentrations for XI(50) calculations.

GV sPLA2 = biological target: T2, GV sPLA2 (Homo sapiens, UniProt P39877); experiment: GV sPLA2 activity assay; assay type: biochemical; conditions: at 0.091 mole fraction
T2 sequence (P39877 21-138): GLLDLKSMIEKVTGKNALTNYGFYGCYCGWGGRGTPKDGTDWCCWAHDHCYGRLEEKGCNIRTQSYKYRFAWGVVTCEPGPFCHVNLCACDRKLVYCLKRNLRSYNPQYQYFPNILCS
Procedure: GV sPLA2 activity was measured in a similar assay. The final assay buffer was composed of 50 mM Tris-HCl (pH 8.0) and 5 mM CaCl2. Each assay was performed in 500 μL total volume made up of 100 μL of 5× substrate solution (20 μL of 10 mM Triton X-100 and 80 μL assay buffer), 390 μL assay buffer, 10 μL GV sPLA2 solution (1 μL of 40 ng/μL stock and 9 μL assay buffer), and 5 μL of DMSO or 2-oxoamide in DMSO. The 5× substrate solution was prepared by drying down the phospholipids (in organic solvent) with N2. The appropriate volume of 10 mM Triton X-100 was added, heated and vortexed until clear. Then assay buffer was added to make a 5× substrate solution. The final mixed micelles were at 400 μM Triton X-100 and 100 μM DPPC (of which 100,000 cpm of ^14C-DPPC).

GVIA PLA2 = biological target: T3, GVIA PLA2 (Homo sapiens, UniProt O60733); experiment: Time dependence and reversibility of GVIA PLA2 inhibition; assay type: biochemical
T3 sequence (O60733 1-806): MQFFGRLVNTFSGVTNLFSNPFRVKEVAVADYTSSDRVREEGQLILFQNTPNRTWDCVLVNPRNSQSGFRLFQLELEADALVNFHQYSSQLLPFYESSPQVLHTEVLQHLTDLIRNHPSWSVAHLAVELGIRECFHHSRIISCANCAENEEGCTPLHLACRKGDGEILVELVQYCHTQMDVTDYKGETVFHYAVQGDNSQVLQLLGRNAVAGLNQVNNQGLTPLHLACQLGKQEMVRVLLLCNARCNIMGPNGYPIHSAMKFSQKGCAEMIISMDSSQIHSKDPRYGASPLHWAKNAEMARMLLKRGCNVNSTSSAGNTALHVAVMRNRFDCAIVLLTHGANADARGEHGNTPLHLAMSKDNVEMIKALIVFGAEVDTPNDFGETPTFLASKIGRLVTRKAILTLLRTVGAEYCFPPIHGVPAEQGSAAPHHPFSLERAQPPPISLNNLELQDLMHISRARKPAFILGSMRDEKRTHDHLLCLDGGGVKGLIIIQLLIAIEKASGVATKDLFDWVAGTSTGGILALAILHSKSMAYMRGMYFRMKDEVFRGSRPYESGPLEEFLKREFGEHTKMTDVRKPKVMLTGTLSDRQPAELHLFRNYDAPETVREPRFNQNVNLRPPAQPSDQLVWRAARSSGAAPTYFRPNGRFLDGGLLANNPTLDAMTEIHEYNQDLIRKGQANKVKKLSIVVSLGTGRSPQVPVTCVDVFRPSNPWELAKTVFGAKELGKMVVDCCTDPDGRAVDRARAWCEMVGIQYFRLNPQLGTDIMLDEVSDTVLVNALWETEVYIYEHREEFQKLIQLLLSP
Procedure: GVIA PLA2 (25 ng) was preincubated with either AX010 or AX0073 (5 μM) for 0, 5, 15 or 30 minutes and then assayed in the standard GVIA PLA2 assay mix containing 5 μM inhibitor. The final concentration of the inhibitors in the assay mix was 0.01 mole fraction, and the samples were incubated for 30 minutes at 40° C. […] In the latter respect, 25 ng of GVIA PLA2 was pre-incubated with 10 μM AX010 or AX073 for 10 minutes before diluting the enzyme 1:50 into the standard GVIA PLA2 assay mix lacking inhibitor, and incubating for 30 minutes at 40° C. The final inhibitor concentration in these assays was 0.0004 mole fraction, well below surface concentrations that either AX010 or AX073 inhibit the enzyme.

[2] = biological target: T4, Group VIA iPLA2 (GVIA PLA2) (Homo sapiens, UniProt O60733); experiment: In vitro Group VIA iPLA2 mixed micelle assay; assay type: biochemical
T4 sequence (O60733 1-806): T3 sequence (O60733 1-806)
Procedure: as §1, §2

[3] = tested on: murine RAW 264.7 macrophage-like cell line; experiment: Long-term LPS stimulation, PGE2 release; assay type: cell-based; conditions: low μM range
Procedure: Several 2-oxoamides were tested in the long-term lipopolysaccharide (LPS) stimulation pathway in the murine RAW 264.7 macrophage-like cell line. (Raschke, et al., Cell, 1978, 15, 261-267). This pathway requires GIVA PLA2 activity and results in the extracellular release of many eicosanoid compounds including the prostaglandin PGE2. (Gijon, et al., leukoc. Biol., 1999, 65, 330-336). […] In the low μM range, AX041 and AX073 reduced PGE2 release by roughly 40% (FIG. 1(D)). At 1 μM and 5 μM concentrations, small activations were often seen. The in vitro and cellular results together are consistent with the known roles of GVIA PLA2 given that AX010, a selective GVIA inhibitor, had no cellular effect. […] Inhibitors selective for GIVA PLA2 or dual specificity inhibitors reduce PGE2 levels, also consistent with the known role of GIVA PLA2 in PGE2 production.

COX-1 and COX-2 proteins = experiment: COX Activity Assay kit, in vitro cyclooxygenase activity; assay type: biochemical; conditions: 50 μM
Procedure: Inhibitors dissolved in DMSO (study compounds) or ethanol (indomethacin) were added to 50 μM final concentration and allowed to incubate with the assay mixture including enzyme for 5 minutes. After addition of TMPD and arachidonic acid, samples were mixed and allowed to incubate 5 minutes at room temperature before reading absorbance at 595 nm to determine results. Results were calculated and percent inhibition values derived.

Row | Compound | melting point [°C] | Inhibition of GIVA PLA2, XI(50) [1] | efficacy against sPLA2 (GV sPLA2) [%] | reversibility of GVIA PLA2 inhibition (GVIA PLA2; pre-incubated with 10 μM for 10 minutes, diluted 1:50, final 0.0004 mole fraction) | time-dependent inhibition of GVIA PLA2 (GVIA PLA2; preincubated 0, 5, 15 or 30 minutes, 5 μM inhibitor, 0.01 mole fraction) | Inhibition of GVIA PLA2, XI(50) [2] | reduction of PGE2 release [3] | inhibition of cyclooxygenase activity (COX-1 and COX-2 proteins)
1 | CCCCCCCCCCCCCCC(=O)C(=O)NC(C=CC(=O)OC)CCCC (centres unmarked) [AX073, 4-(2-Oxo-hexadecanoylamino)-oct-2-enoic acid methyl ester] | 48 to 50 | XI(50) =0.018 ± 0.010 mole fraction | 75.3 | freely reversible inhibitors | no increased potency with prolonged incubation | XI(50) =0.032 ± 0.010 mole fraction | roughly 40% | –
2 | COc1ccc2c(c1)c(CC(=O)O)c(C)n2C(=O)c1ccc(Cl)cc1 [indomethacin, reference compound] | – | – | – | – | – | – | – | near complete inhibition
